Results published in patent US9701646B2, “Small molecule inhibitors of PI3-kinase signaling” (Tufts University, priority 2013, dated 2017).
Where two headings read alike, the source gives them in different places.

What was measured:
[1] = tested on: A2780 human ovarian cancer cells; assay: Cell viability of A2780 cells, ATP assay; type: cell-based; settings: A2780, 24 h; for EC50: Homo sapiens; for cell viability in combination with TRAIL: versus compound alone
Protocol: (§1) A2780 human ovarian cancer cells were maintained in culture at 37° C., 5% CO2, complete medium for 24 h in the presence of various final concentrations of DM-PIT-1, YK-NCL-176, YK-NCL-198, or NK-YCL-240, each in DMSO, with or without 1 μg/mL TRAIL. DMSO alone was used as a negative control. Following the incubation, cell viability was measured using an ATP assay.
as §1, with “YK-NCL-217, YK-NCL-218, NK-YCL-219, YK-NCL-220, YK-NCL-234,” for “YK-NCL-176, YK-NCL-198,”, “YK-NCL-241,” for “NK-YCL-240,”

[2] = tested on: U87MG human glioblastoma cells; assay: Cell viability of U87MG cells, ATP assay; type: cell-based; settings: Homo sapiens, U-87 MG, 24 h
Protocol: U87MG human glioblastoma cells were maintained in culture at 37° C., 5% CO2, complete medium for 24 h in the presence of various final concentrations of YK-NCL-176, YK-NCL-177, YK-NCL-178, YK-NCL-179, YK-NCL-180, YK-NCL-183, YK-NCL-184, YK-NCL-185, YK-NCL-186, YK-NCL-187, YK-NCL-188, YK-NCL-189, YK-NCL-190, YK-NCL-191, YK-NCL-192, YK-NCL-193, YK-NCL-194, YK-NCL-195, YK-NCL-196, YK-NCL-197, NK-YCL-198, or YK-NCL-199, each in DMSO, with or without 1 μg/mL TRAIL. DMSO alone was used as a negative control. Following the incubation, cell viability was measured using an ATP assay.

[3] = Micellar drug release by dialysis; type: physicochemical; settings: 37° C.
Protocol: Drug-loaded micelles were analyzed for their in vitro drug release profile at 37° C. in 1×PBS pH 7.4 over 48 hrs. Micelles were prepared as described previously. 500 μL of drug-loaded micelles were aliquoted into Spectra/Pro® regenerated cellulose dialysis membranes with a MWCO of 1,000 Da and dialyzed against a large excess of 1×PBS pH 7.4. At predetermined times, dialysis bags were opened and aliquots of sample were taken and diluted with 200 μL acetonitrile. Drug concentration was determined by HPLC using previously described methods.

A2780 ovarian carcinoma = assay: A2780 cell viability, CellTiter-Blue, free and micellar formulations; type: cell-based, human
Protocol: Cell viability of A2780 ovarian carcinoma was measured using CellTiter-Blue® (Promega, Madison, Wis.) viability assay. Briefly, cells were seeded in 96-well plates according to proper cell densities (3,000-5,000 cells). After 24 h incubation in 5% CO2 at 37° C., cells were treated with formulations at various concentrations for 24 h in serum complete media. After 24 h treatment, media was removed, the wells were washed with serum complete media and replaced with 50 μL media and 10 μL CellTiter-Blue®. Cell viability was evaluated after 4 h of incubation at 37° C. at 5% CO2 by measuring the fluorescence (ex. 550 nm, em. 590 nm) using a Synergy HT multi-detection microplate reader (Biotek, Winooski, Vt.).

A2780 cells = assay: In vitro wound closure (cell migration), A2780; type: cell-based, human; settings: A2780, up to 76 h
Protocol: A2780 cells and T47D cells were grown to confluence in separate cultures under conditions of 37° C., 5% CO2, and complete medium. At time zero, a pipette tip was dragged across the cells, producing a linear defect in the confluent layer of cells. Medium was then supplemented with various concentrations of DM-PIT-1, YK-NCL-176, or YK-NCL-240, or an equivalent volume of DMSO alone, and cells were maintained in culture for an additional 76 h. Linear defects were viewed with a microscope at 0, 21, 47, 69, and 76 h following addition of test agent, and the width of the defect was quantitated at each time point. This in vitro assay represents a model of wound closure.

[4] = Micellar drug loading by reverse phase HPLC; type: physicochemical; settings: PEG-PE micelles, PEG-PE 13.07 mg/mL, n = 3 with SD
Protocol: Drug incorporation efficiency was measured by reverse phase HPLC using an Xbridge C18 ([…]) column (Waters Corporation, Milford, Mass.) on a Hitachi Elite LaChrom HPLC with autosampler (Pleasanton, Calif.). The HPLC method was modified from previously published method. Skidan I et al., J Chromatogr B Analyt Technol Biomed Life Sci 879:1610-1616 (2011). The mobile phase consisted of either 70:30 acetonitrile:water (DM-PIT-1) or 60:40 acetonitrile:water (NCL-176, NCL-179, NCL-198, NCL-240) with a flow rate of 1 mL/min. Detection of drug was performed at a wavelength corresponding to a peak on the absorption spectrum (DM-PIT-1: 320 nm, NCL-176: 260 nm, NCL-179: 295 nm, NCL-198: 295 nm, NCL-240: 300 nm). Sample injections were kept constant at 50 μL and the sample runtime was 10 min. Concentration of drug was determined by measuring the area under curve of the peak. Standard curves of stock drug in acetonitrile from concentrations of 10 μg/mL to 15 ng/mL were used to determine incorporation of drug in micelles. 5 μL of dialyzed drug-loaded micelles were diluted in 495 μL acetonitrile to destroy micelles.

[5] = in DMSO, without TRAIL, read-out: EC50 alone
[6] = with 1 μg/mL TRAIL, read-out: EC50 with TRAIL

| Molecule | EC50 [2, 5] [µM] | EC50 [2, 6] [µM] | also measured |
| --- | --- | --- | --- |
| Cc1cccc(O)c1-n1cc(C(O)(c2cc(C(F)(F)F)cc(C(F)(F)F)c2)c2cn(-c3c(C)cccc3O)nn2)nn1 [YK-NCL-217] |  |  | EC50 [1, 5]: 50.9 µM; EC50 [1, 6]: 13.5 µM |
| Oc1ccc(Cl)cc1-n1cc(C(O)(c2ccccc2)c2cn(-c3cc(Cl)ccc3O)nn2)nn1 [YK-NCL-179, 2,2′-(4,4′-(hydroxy(phenyl)methylene)bis(1H-1,2,3-triazole-4,1-diyl))bis(4-chlorophenol)] | 36.7 | 20.4 | drug released from micelles ([3]; 1×PBS pH 7.4, after 48 h): 40%; cytotoxicity as free compound compared to DM-PIT-1 (A2780 ovarian carcinoma; A2780, 24 h, free compound): improved cytotoxicity properties |
| CC(C)c1ccc(C(=O)c2cn(-c3ccc([N+](=O)[O-])cc3O)nn2)cc1 [YK-NCL-199] | > 100 | 95.3 |  |
| Cc1cccc(O)c1-n1cc(C(=O)c2ccccc2)nn1 [YK-NCL-185] | 8.1 | 8 |  |
| O=C(c1ccccc1)c1cn(-c2cc(Cl)ccc2O)nn1 [YK-NCL-176, (1-(5-Chloro-2-hydroxyphenyl)-1H-1,2,3-triazol-4-yl)(phenyl)methanone] | 104 | 51.6 | inhibition of cell migration (wound closure) (A2780 cells): significantly more effectively than DM-PIT-1; Loading Eff. [4]: slightly lower loading; concentration at which cell viability was reduced by at least 50 percent ([1]; alone): 25 µM; cell viability in combination with TRAIL ([1]; with 1 μg/mL TRAIL): further reduced cell viability; drug released from micelles ([3]; 1×PBS pH 7.4, at 10 h): completely released; cytotoxicity on addition of TRAIL to the formulation (A2780 ovarian carcinoma; A2780, micellar formulation plus TRAIL): markedly increased cytotoxicity |
| Cc1cc(C)cc(C(=O)NC(=S)Nc2cc([N+](=O)[O-])ccc2O)c1 [DM-PIT-1, N-[(2-hydroxy-5-nitrophenyl)amino]carbonothioyl-3,5-dimethylbenzamide, reference compound] |  |  | Loading Eff. [4]: slightly lower loading; concentration at which cell viability was reduced by at least 50 percent ([1]; alone): 25 µM; cell viability in combination with TRAIL ([1]; with 1 μg/mL TRAIL): further reduced cell viability; EC50 [1, 5]: 30.5 µM; EC50 [1, 6]: 18.7 µM; drug released from micelles ([3]; 1×PBS pH 7.4, at 10 h): completely released |
| Cc1cc(C)cc(C(=O)c2cn(-c3cc(C)ccc3O)nn2)c1 [YK-NCL-193] | > 100 | > 100 |  |
| O=C(c1ccccc1)c1cn(-c2ccc(Cl)cc2O)nn1 [YK-NCL-191] | 48.9 | 42.3 |  |
| Cc1cc(C)cc(C(=O)c2cn(-c3c(C)cccc3O)nn2)c1 [YK-NCL-192] | 104 | 98.4 |  |
| Cc1ccc(O)c(-n2cc(C(=O)c3ccc4ccccc4c3)nn2)c1 [YK-NCL-188] | > 100 | > 100 |  |
| Cc1cccc(O)c1-n1cc(C(=O)c2ccc3ccccc3c2)nn1 [YK-NCL-187] | 85.2 | 74.9 |  |
| COc1ccc(Cl)cc1-n1cc(C(=O)c2ccccc2)nn1 [YK-NCL-178] | > 100 | > 100 |  |
| CC(C)c1ccc(C(=O)c2cn(-c3cc(Cl)ccc3O)nn2)cc1 [YK-NCL-195] | 64.1 | 41.6 |  |
| Cc1cc(C)cc(C(O)(c2cn(-c3c(C)cccc3O)nn2)c2cn(-c3c(C)cccc3O)nn2)c1 [YK-NCL-220] |  |  | EC50 [1, 5]: > 100 µM; EC50 [1, 6]: 16.9 µM |
| O=C(c1ccc2ccccc2c1)c1cn(-c2ccc([N+](=O)[O-])cc2O)nn1 [YK-NCL-189] | > 100 | > 100 |  |
| Cc1cccc(O)c1-n1cc(C(O)(c2ccccc2)c2cn(-c3c(C)cccc3O)nn2)nn1 [YK-NCL-218] |  |  | EC50 [1, 5]: > 100 µM; EC50 [1, 6]: 22.8 µM |
| Cc1cccc(O)c1-n1cc(C(=O)c2ccc(C(C)C)cc2)nn1 [YK-NCL-196] | > 100 | > 100 |  |
| O=C(c1ccc2ccccc2c1)c1cn(-c2cc(Cl)ccc2O)nn1 [YK-NCL-186] | > 100 | > 100 |  |
| COc1ccc(Cl)cc1-n1nncc1C(=O)c1ccccc1 [YK-NCL-177] | > 100 | > 100 |  |
| Cc1cc(C)cc(C(=O)c2cn(-c3cc(Cl)ccc3O)nn2)c1 [YK-NCL-190] | 57.8 | 30.6 |  |
| Oc1ccc(Cl)cc1-n1cc(CC(O)(c2ccccc2)c2cn(-c3cc(Cl)ccc3O)nn2)nn1 (stereo not drawn) [YK-NCL-241] |  |  | EC50 [1, 5]: > 100 µM; EC50 [1, 6]: > 100 µM |
| Cc1ccc(O)c(-n2cc(C(O)(c3ccccc3)c3cn(-c4cc(C)ccc4O)nn3)nn2)c1 [YK-NCL-219] |  |  | EC50 [1, 5]: 24.1 µM; EC50 [1, 6]: 9.2 µM |
| O=C(NCc1cn(-c2cc(Cl)ccc2O)nn1)c1cc(C(F)(F)F)cc(C(F)(F)F)c1 [YK-NCL-234] |  |  | EC50 [1, 5]: 16.2 µM; EC50 [1, 6]: 14 µM |
| COc1ccc(Cl)cc1-n1cc(C(O)(c2ccccc2)c2cn(-c3cc(Cl)ccc3OC)nn2)nn1 [YK-NCL-180] | > 100 | > 100 |  |
| Cc1cc(C)cc(C(=O)c2cn(-c3ccc([N+](=O)[O-])cc3O)nn2)c1 [YK-NCL-194] | 89.1 | 70.5 |  |
| Cc1ccc(O)c(-n2cc(C(=O)c3ccccc3)nn2)c1 [YK-NCL-184] | > 100 | > 100 |  |
| Cc1ccc(O)c(-n2cc(C(=O)c3ccc(C(C)C)cc3)nn2)c1 [YK-NCL-197] | > 100 | > 100 |  |
| Cc1cc(C)cc(C(=O)c2cn(-c3ccc(Cl)cc3O)nn2)c1 [YK-NCL-183] | > 100 | 64.4 |  |
| TRAIL: Tumor necrosis factor (TNF)-related apoptosis-inducing ligand; recombinant His6-tagged human TRAIL produced in E. coli (protein, UniProt P50591 1-281, looked up, His6 tag, Tumor necrosis factor (TNF)-related apoptosis-inducing ligand; recombinant His6-tagged human TRAIL produced in E. coli) Tumor necrosis factor ligand …: MAMMEVQGGPSLGQTCVLIVIFTVLLQSLCVAVTYVYFTNELKQMQDKYSKSGIACFLKEDDSYWDPNDEESMNSPCWQVKWQLRQLVRKMILRTSEETISTVQEKQQNISPLVRERGPQRVAAHITGTRGRSNTLSSPNSKNEKALGRKINSWESSRSGHSFLSNLHLRNGELVIHEKGFYYIYSQTYFRFQEEIKENTKNDKQMVQYIYKYTSYPDPILLMKSARNSCWSKDAEYGLYSIYQGGIFELKENDRIFVSVTNEHLIDMDHEASFFGAFLVG |  |  | effect on cell viability ([1]; alone, 1 μg/mL): essentially no effect on cell viability |
